The assay addresses T1, human soluble epoxide hydrolase (sEH) (Homo sapiens, UniProt P34913).
T1 sequence (P34913 1-555): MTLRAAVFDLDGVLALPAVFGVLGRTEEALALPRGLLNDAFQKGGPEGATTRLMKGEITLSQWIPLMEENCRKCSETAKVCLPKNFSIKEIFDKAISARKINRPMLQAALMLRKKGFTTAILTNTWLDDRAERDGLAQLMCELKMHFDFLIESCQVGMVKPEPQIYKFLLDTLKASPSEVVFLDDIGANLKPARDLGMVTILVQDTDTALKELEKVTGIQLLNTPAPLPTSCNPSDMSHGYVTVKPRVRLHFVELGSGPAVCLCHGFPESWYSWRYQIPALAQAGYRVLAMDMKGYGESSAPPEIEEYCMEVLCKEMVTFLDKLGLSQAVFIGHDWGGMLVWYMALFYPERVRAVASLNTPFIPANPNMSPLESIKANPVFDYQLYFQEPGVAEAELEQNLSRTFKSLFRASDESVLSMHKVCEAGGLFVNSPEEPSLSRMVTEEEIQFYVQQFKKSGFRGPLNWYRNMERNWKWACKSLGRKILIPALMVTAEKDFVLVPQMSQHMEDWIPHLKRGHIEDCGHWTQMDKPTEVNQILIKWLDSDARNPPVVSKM
Description: radiometric assay with [3H]-tDPPO substrate. The format is biochemical.

What is called IC50 is the concentration that inhibits the measured activity by half. UC2389 showed an IC50 of 20 ± 0.5 nM.

The values above are taken from PMC5172606 (Archives of biochemistry and biophysics, 2016).
